Test results published in US20250144179A1, “PEPTIDE HORMONE TO PREVENT OR TREAT VASOSPASM, BRAIN INJURY OR CEREBRAL EDEMA” (UNIVERSITY OF FLORIDA RESEARCH FOUNDATION, INCORPORATED, priority 2022, published 2025).

Experiments:
Type in all cases: in vivo, mouse
[1] = test system: wild-type mice, SAH model; experiment: Fibrinogen immunostaining for microthrombi after SAH; conditions: 24 hours post-SAH, adropin 450 nmol/kg i.p.
Method: (§1) Synthetic adropin^34-76 peptide was supplied from Bachem (Bubendorf, Switzerland) and diluted in 0.1% BSA in saline. 0.1% BSA in saline was used as vehicle control for all experiments. Adropin (450 nmol/kg) or an equivalent volume of vehicle was delivered via intraperitoneal injection 15 minutes post-SAH. For experiments ending at 24 hours post-SAH, an identical dose of adropin/vehicle was given again 12 hours later. For experiments ending 7 days post-SAH, adropin/vehicle was given again on days 1, 3 & 5 post-SAH. In the aneurysm rupture model, adropin was given at a dose of 450 nmol/kg starting 3 days before aneurysm induction (elastase injection). Adropin was given every other day until sacrifice
(§2) SAH was modeled using the anterior circulation single autologous blood injection method^25,33 with minor adjustments. […]
(§3) Following perfusion-fixation and overnight post-fixation in 4% PFA, brain samples were embedded in paraffin wax and cut into […] sections with a Leica RM2125 RTS microtome (Leica Microsystems, Buffalo Grove, New York) and adhered to poly-L-lysine-coated glass slides. […] Primary antibodies were detected using donkey anti-rabbit IgG AlexaFluor594, donkey anti-rabbit IgG AlexaFluor488, donkey anti-rat IgG AlexaFluor594, or donkey anti-goat IgG AlexaFluor488 (all from ThermoFisher, Waltham, Massachusetts). […] All images were analyzed by two blinded observers.

[2] = test system: wild-type mice, SAH model; experiment: Cerebral blood flow by laser speckle contrast imaging after SAH; conditions: day 1 post-SAH, adropin 450 nmol/kg i.p.
Method: as §1
SAH was modeled using the anterior circulation single autologous blood injection method^25,33 with minor adjustments. Mice were anesthetized with ketamine (100 mg/kg) and xylazine (10 mg/kg) before removing hair from scalp and cleaning with serial betadine—saline washes. The tail was also prepped from the base extending 1 cm distally. Mice were then fixed into a stereotaxic frame and body temperature maintained at 37° C. […]
One day post-SAH, animals were anesthetized with ketamine/xylazine as described above, placed in a supine position in a stereotaxic frame. […] Blood flow (perfusion) values are calculated using PIMsoft software (PeriMed AB, Stockholm, Sweden) as arbitrary “perfusion units”. […]

[3] = test system: wild-type mice, SAH model; experiment: TUNEL/NeuN staining for neuronal apoptosis after SAH; conditions: seven days post-SAH
Method: as §1, §2, §3

[4] = Quantitative serum assays for common markers of liver toxicity
[5] = test system: murine intracranial aneurysm rupture model; experiment: Intracranial aneurysm rupture model; conditions: 450 nmol/kg every other day from 3 days before aneurysm induction, vs vehicle
Method: as §1
Cerebral aneurysms were induced as previously described. Briefly, mice were anesthetized with ketamine (100 mg/kg) and xylazine (10 mg/kg) before the left common carotid artery and the right renal artery were ligated with 7-0 silk suture (Ethicon Inc., Somerville, New Jersey). Carotid and renal artery ligations are hereafter referred to as ligations. One week after ligations, mice were anesthetized and 10 μL of 1.0 U/mL porcine pancreatic elastase solution (Worthington Biochemical Corp, Lakewood, New Jersey) diluted in phosphate buffered saline (PBS, Invitrogen, Carlsbad, California) was stereotactically injected into the right basal cistern at 1.2 mm rostral of bregma, 0.7 mm lateral of midline, and 5.3 mm deep to the surface of the brain. A subcutaneous osmotic pump (Alzet, Cupertino, California) placed in the right flank immediately after elastase injection and continually infused angiotensin II (Bachem, Torrence, California) at a dose of 1000 ng/kg/min. Elastase injection and osmotic pump placement are hereafter referred to as aneurysm induction. Following recovery from aneurysm induction, mice were fed a diet of 8% NaCl with 0.12% beta-aminopropionitrile (BAPN; Harlan Laboratories, Indianapolis, Indiana).
Three weeks post-aneurysm induction, mice were deeply anesthetized with ketamine/xylazine. A bilateral anterolateral thoracotomy with transverse sternotomy was made to expose the heart and great vessels. The right atrium was punctured with the tip of a 23 g needle as an outlet before the left ventricle was sequentially perfused with normal saline, 4% paraformaldehyde (PFA), and Coomassie Brilliant Blue dye in a 20% gelatin solution. Brains were carefully removed from the skull and inspected under a dissection microscope for the presence of aneurysms as evidenced by outpouching of cerebral arteries in or connected to the circle of Willis. Aneurysm rupture was identified by the presence of extravasated blood near an identified aneurysm. […]

In the case of “adropin (CHSRSADVDSLSESSPNSSPGPCPEKAPPPQKPSHEGSYLLQP) [Synthetic adropin^34-76 peptide from Bachem]”, the “number of microthrombi (fibrinogen immunostaining)” value [1] is reported as “adropin treatment completely abolished this effect”, the “cerebral blood flow (CBF), perfusion” value [2] is reported as “adropin treatment restored CBF back to baseline” and the “NeuN+/TUNEL+ cells (neuronal apoptosis)” value [3] is reported as “did not have as many TUNEL^+ neurons”. The “serum concentration of alanine aminotransferase (ALT)” value ([4]; I.P. injection of adropin) was “did not cause elevations”, the “serum concentration of aspartate aminotransferase (AST)” value ([4]; I.P. injection of adropin) was “did not cause elevations” and the “serum concentration of fasting glucose” value ([4]; I.P. injection of adropin) was “did not cause elevations”. The “serum concentration of total bilirubin” value ([4]; I.P. injection of adropin) was “did not cause elevations”, the “common markers of liver toxicity” value ([4]; adropin vs vehicle) was “adropin had no effect compared to vehicle treatment” and the aneurysm formation [5] was “did not significantly reduce aneurysm formation”. For the same substance, the aneurysm rupture [5] was “did not significantly reduce aneurysm formation (FIG. 9C) or aneurysm rupture”, the “deficit-free (symptom-free) survival” value [5] was “extended deficit-free survival compared to vehicle” and the “proportion of aneurysm ruptures that were symptom-producing” value [5] was “less likely to be symptom-producing”.
